According to patent US11827624B2, “Covalent immune recruiter compounds for immune cell recognition and associated uses” (McMaster University, priority 2020, dated 2023):

Test system: monoclonal human anti-DNP antibody (mAb)
Assay: BLI covalent labeling kinetics assay on IgG Fc capture probes, mAb
Format: binding
Protocol: Kinetic assays to characterize the second order rate constant (kinact/KI) describing the CIR+Ab labeling reaction involved incubating increasing concentrations of CIR 3 or CIR 5 with a fixed concentration (75 nM) of anti-DNP mmAb in solution, for different periods of time. PSMA binding to CIR-Ab complexes increases the total mass associated with the probe surface leading to signal increases (nm shift). CIR 3 (500 nM) and 75 nM of either mmAb or mAb (AcroBiosystems Catalog #DNP-M2) was reacted in 1× Kinetics Buffer (ForteBio) for four hours prior to the experiment. IgG Fc capture (ProG) probes from ForteBio were placed in 1× Kinetics Buffer for 20 minutes prior to the experiment for wetting. The experiment was conducted using an Octet Red96 (ForteBio), where the acquisition rate was set to 5 Hz and the temperature was held at 25° C. The plate shaker setting was 1000 RPM. A volume of 250 μL of each solution was loaded onto a black flat-bottom 96-well plate (Grenier). The experiment began by placing the ProG probes in 1×Kinetics Buffer for four minutes to establish a baseline. Next, the probes were placed into the CIR 3 and anti-DNP antibody reaction mixture to load the covalent complex (CIR-Ab) onto the probe. Next, the probes were placed in a solution of 5 mM DNP-glycine competitor in 1×Kinetics Buffer in order to disrupt any non-covalent or non-specific binding. The baseline was re-established by then placing the probes in 1× Kinetics Buffer for 0.5 minutes. To measure PSMA association, the probes were placed in a solution of 500 nM human PSMA protein in 1× Kinetics Buffer for 10 minutes. The probes were then placed in 1×Kinetics Buffer for 10 minutes to measure dissociation. The raw nm shift signal for the association and dissociation step obtained by the Octet Red96 was first baselined to the beginning of the association step (t=0 second) by subtracting the association signal at t=0 from the measured signal at each time point. The Kd was determined by fitting both the association and dissociation curves using the ‘association then dissociation’ binding model in GraphPad Prism 8. The experiment was repeated once for a total of two replicates.
The specific labelling of an antibody by a CIR occurs via a two-step mechanism. In the first step, the CIR binds to the antibody via its ABD and forms a reversible complex. […] This second order rate constant was determined by monitoring covalent product (CIR-Ab) formation as a function of time via BLI using IgG Fc capture probes (note: a non-specific labeling reaction occurs independent of binding to the DNP binding site with any biological nucleophile and follows second order kinetics without saturation). […]

With `O=C(O)CC[C@H](NC(=O)N[C@@H](CCCCNC(=O)NCCOCCOCCOCCOCCOCCOCCOCCOC(=O)n1cnc(CCNC(=O)CNc2ccc([N+](=O)[O-])cc2[N+](=O)[O-])c1)C(=O)O)C(=O)O` [CIR 3] the “covalent labeling of anti-DNP mAb” value (75 nM mAb, 500 nM CIR 3) was “selectively covalently modify mAb albeit with modestly slower kinetics”, the “Kinact/Kl ^c” value (mAb) was 1730 ± 1040 M⁻¹ s⁻¹ and the “Kinact^c” value (mAb, 75 nM antibody) was 2.0 × 10^−4 ± 0 s^−1. The Ki (mAb, read-out: Kl ^c) was 0.16 ± 0.07 µM.
